What was measured:
[1] = system: K562 (human chronic myelogenous leukaemia); experiment: Calcein AM cytotoxicity assay, K562; format: cell-based; settings: Homo sapiens, read-out: Cytotoxic activity IC50 (μM) K562
Source text: Cytotoxicity of the compounds is the major property determining their anticancer effect in vivo. One of the parameters used, as the basis for cytotoxicity assays, is the metabolic activity of viable cells. For example, a microtiter assay, which uses the Calcein AM, is now widely used to quantitate cell proliferation and cytotoxicity. For instance, this assay is used in drug screening programs and in chemosensitivity testing. Because only metabolically active cells cleave Calcein AM, these assays detect viable cells exclusively. The quantity of cleaved Calcein AM corresponds to the number of vital cells in the culture. We have been using the following cell lines: MCF7 (human breast adenocarcinoma), K562 (human chronic myelogenous leukaemia), HOS (human osteogenic sarcoma), HeLa (human cervical carcinoma), HL 60 (human promyelocytic leukaemia), G 361 (human malignant melanoma), CEM (human lymphoblastoid leukaemia). All cell lines were grown in DMEM medium (Gibco BRL) supplemented with 10% (v/v) fetal bovine serum and L-glutamine and maintained at 37° C. in a humidified atmosphere with 5% CO2. For cytotoxicity assays, 10^4 cells were seeded into each well of 96 well plate, allowed to stabilize for at least 2 h and then tested compounds were added at various concentrations ranging from 100 to 0.1 μM in triplicates. Three days after drug addition Calcein AM solution (Molecular Probes) was added and let to enter the cells for 1 hour. Fluorescence of viable cells was quantified using Fluoroskan Ascent (Microsystems).

p53 = experiment: p53-dependent transcription, β-galactosidase reporter in Arn8 cells; format: cell-based, human; design: key to p53 (effect): induction of p53 protein: ++: very strong; +: weak; −: no effect
[2] = system: p53, p21^WAF1, Mcl-1 in MCF-7 cells; experiment: Immunoblotting of p53, p21WAF1 and Mcl-1 in MCF-7 cells; format: cell-based, human
Method: For immunoblotting, cell were detached with rubber policeman and washed three times with ice-cold PBS and lysed in buffer (50 mM Tris, pH 7.4, 250 mM NaCl, 5 mM EDTA, 50 mM NaF, 1 mM Na3VO4, 1% Nonidet P40) containing mixture of protease and phosphatase inhibitors (Sigma-Aldrich, USA). 20 μg of total proteins were separated by SDS-polyacrylamide gel electrophoresis (SDS-PAGE) and transferred onto nitrocellulose membranes. Membranes were blocked in 5% milk and 0.1% Tween 20 in PBS and probed overnight with specific monoclonal antibodies or rabbit polyclonal sera. Primary antibodies specific for p53 (DO-1, in house), p21^WAF1 (118, in house), PARP-1 (2C10, Sigma-Aldrich St Louis, Mo., USA), Mcl-1 (S-19, Santa Cruz, USA), all used at 1 μg/ml. All primary antibodies were diluted in PBS containing 5% powdered milk; 0.1% Tween 20. Peroxidase conjugated rabbit anti-mouse immunoglobulin or porcine anti-rabbit immunoglobulin antisera (DAKO, Denmark) were used as the secondary antibodies and visualised with ECL reagents (Amersham-Pharmacia, Little Chalfont, UK).
The induction of p53 protein was apparent in 4 hrs but enhanced level of p21^WAF1 protein was observed only 12 hours after treatment with compound 128 (FIG. 5). The periods of time 12 and 24 hrs were chosen, since the level of protein expression reached a steady state.

P388D1 leukemia = experiment: Survival model of P388D1 leukemia transplanted intraperitoneally; format: in vivo, DBA-2 mice; settings: 250 mg/kg orally twice daily, Days 1-3 and 7-9
Method: Screening of biological activity of compound 128 was performed on survival model of P388D1 leukemia transplanted intraperitoneally with 2.10^5 cells. DBA-2 mice were used as a host. One day following the leukemia transplantation, treatment with 128 was initiated. The drug was given orally by gastric gavages in total volume of 200 μl/dose twice daily at dose 250 mg/kg in two chemotherapy cycles (Days 1-3 and 7-9). The compound 128 was solubilized in 5% N-methyl-2-pyrollidine, 30% polyethylene glycol 400, 65% tartar buffer (pH 3.0). Survival analysis of treated animals (10 mice/group) was preformed in comparison with vehicle treated mice using Kaplan-Meier method and the significance was evaluated by the log-rank test. Body weight of experimental animals was evaluated in parallel in order to reflect toxicity and efficacy of therapy. Comparative analysis of body weight was performed using non-parametric t-test.

A549 lung adenocarcinoma = experiment: Human xenograft model of A549 lung adenocarcinoma; format: in vivo; settings: 150 mg/kg orally twice daily
Method: More detailed analysis of anticancer activity of compound 128 was performed on human xenograft model of A549 lung adenocarcinoma transplanted to CD-1 SCID mice. Animals were transplanted subcutaneously with 2.10^6 A549 cells into lower back. Approximately one month later, majority of animals developed palpable tumors and therapy was initiated. The drug was given orally by gastric gavages in total volume of 200 μl/dose twice daily at dose 150 mg/kg in two chemotherapy cycles (Days 1-3 and 7-9). The compound 128 was solubilized in 5% N-methyl-2-pyrollidine, 30% polyethylene glycol 400, 65% tartar buffer (pH 3.0). Primary endpoint for analysis was reduction of tumor volume (10 mice/group), which was quantified by caliperation. Analysis of treated animals was preformed in comparison with vehicle treated mice. Body weight of experimental animals was also evaluated in parallel in order to reflect toxicity of the therapy. Comparative analysis of tumor volumes and body weights was performed using non-parametric t-test.

CCC(CO)Nc1nc(NCc2cccc(OC)c2O)c2ncn(C(C)C)c2n1 (racemic) [Compound 128, (RS)-2-({6-[(2-hydroxy-3-methoxybenzyl)amino]-9-isopropyl-9-H-purin-2-yl}amino)butan-1-ol]
IC50 [1]: 15.5 µM
p53 (effect): induction of p53 protein (p53; Arn8 cells stable transfected with a β-galactosidase reporter gene): ++
total β-galactosidase activity (p53; Arn8 cells, 5 μM, 12 and 24 hours after treatment, vs DMSO control): strong activity of β-galactosidase
p53 (peak concentration in μM) (p53; Arn8 cells, concentration inducing maximum of β-galactosidase activity): 8.0 µM
activation of p53-dependent transcription (p53; Arn8 reporter cell line, β-galactosidase reporter activity): proved to activate p53-dependent transcription
expression of p53, p21^Waf1 and Mcl-1 ([2]; MCF7, 24 h, concentration dependent, immunoblotting): accumulation of tumor suppressor protein p53, expression of p53-regulated CDK inhibitor p21^Waf1 and downregulation of antiapoptotic protein Mcl-1
time after treatment at which enhanced level of p21^WAF1 protein was observed ([2]; MCF-7 cells): 12 h
time at which induction of p53 protein was apparent ([2]; MCF-7 cells): 4 h
body weight of treated animals (P388D1 leukemia): reducing body weight of treated animals
mean survival time (P388D1 leukemia): 27.4 days
survival (Kaplan-Meier, log-rank test) (P388D1 leukemia; vs vehicle, P=0.0427): significantly better survival
mean survival time (A549 lung adenocarcinoma; Days 1-3 and 7-9): 39.1 days
tolerability (A549 lung adenocarcinoma; Days 1-3 and 7-9): good tolerability
tumor volume (A549 lung adenocarcinoma; Days 1-3 and 7-9, vs vehicle, P=0.0506): significantly smaller tumors
body weight of treated animals (A549 lung adenocarcinoma; significant at Day 52 only): only slight reduction the body weight

From patent US8492391B2, “Substituted 6-(2-hydroxybenzylamino)purine derivatives, their use as medicaments and compositions containing these derivatives” (Univerzita Palackeho V Olomouci, priority 2009, dated 2013)
